Data on 8 molecules can be found in US20230255202A1, “ANTIMICROBIAL COMPOSITION” (The Procter & Gamble Company, priority 2022, published 2023).

A short description of series [1]: Stability of the isolated modified amino acid ester by 1H NMR. Format: physicochemical. To be noted: isolated solid or fluid.
The subject of series [2] is Gram Negative. The series is described as follows: Surface Antimicrobial Kill Testing Method, activity normalized to triclosan internal standard. The format is cell-based. To be noted: for Referenced Microbial Activity: Table 15; for Referenced Microbial Activity / Negative Referenced Microbial Activity / Gram Negative Referenced Microbial Activity: 0.5 wt % compound; for Referenced Microbial Activity / Negative Referenced Microbial Activity: 0.1M Acetic acid buffer pH 4.5; for Negative Referenced Microbial Activity: Table 16; for antimicrobial benefit (in words): Table 16 nonionic formulation: DEGBE, EcoSurf EH9; for Gram Negative Referenced Microbial Activity: 5 wt % DPGME; for antimicrobial efficacy (in words): Table 17. How it is done:
Inoculum is prepared by streaking microorganism onto a Tryptic Soy Agar (TSA) plate and incubating for 24 h at 33° C. Plated bacteria is resuspended in saline until the transmittance percentage falls within the accepted range for ˜10^8 cfu/mL. For K. pneumonia (Kp) and P. aeruginosa (Pa), this is 31.00-33.00% T. For S. aureus (Sa) this is 23.00-25.00% T. A 10× concentration is made by spinning down the prepared inoculum, removing the supernatant saline from the bacterial pellet, then resuspending the pellet in 1/10 of the original volume of saline. The final inoculum is prepared with 5% of “soil” in the form of Fetal Bovine Serum (FBS).
A 18×18 mm sterile glass coverslip is placed into an appropriate container (e.g. petri dish). 20 μL of prepared inoculum is added to the glass coverslip. Inoculum is then air-dried for 30 minutes in a 36° C. incubator. After drying, 40 μL of test sample is added on top of the dried inoculum. This is incubated at room temperature for the desired contact time. 5 mL of neutralizing media (Modified Letheen Broth+Tween+Lecithin (MLBTL)) is added to the coverslip and shaken on an orbital shaker for 5 minutes to ensure proper neutralization and extraction. Viability is then assessed of the neutralized and extracted sample by traditional/alternative microbiological techniques.
The normalized antimicrobial activity reported in the performance examples below was generated from detection time data obtained as described in the Surface Antimicrobial Kill Test Method. To account for day-to-day variability an internal standard was tested with each series. The internal standard was a composition of 0.25 wt % Triclosan, Sigma Aldrich (St. Louis, Mo., USA; CAS #3380-34-5, 97.0-103.0% (active substance, GC)), 50 wt % DMSO, and 49.75 wt % H2O, with a final solution pH of 7.7. Normalized activity is reported following the equation 1 below.
Normalized Activity=(αΔDT−βΔDT)/(γΔDT−βΔDT) equation 1.
where, αΔDT is the average detection time of the antimicrobial compound, and γΔDT is the average detection time of the reference triclosan internal standard, and βΔDT is the average detection time of the background unperturbed bacteria.
Modified amino acids of the present disclosure were tested as aqueous solutions in the Surface Antimicrobial Kill Testing Method above. To prepare test solutions modified amino acids were first dissolved in the appropriate solvent. Second the selected surfactant is added to the mixture. After vortex (1 min, Vortex-2 Genie, vortex speed 8) mixing, the samples were then diluted with […] of reverse osmosis water (RO water, Millipore Direct-Q™, pH 6). The aqueous solution was then vortexed (1 min, Vortex-2 Genie, vortex speed 8), to which the second ½ portion of water is added. The pH of the solution was then adjusted to the target pH using either 1N HCl, Glacial Acetic Acid, or 1N NaOH. The final solution was then vortexed (1 min, Vortex-2 Genie, vortex speed 8). An example batch sheet is provided below in Table 1.
In Performance Examples 1-4 below, formulations comprising solvent, surfactant, and antimicrobial agents according to the present disclosure (e.g., based on modified amino acid esters), are evaluated via microbial surface kill tests according to the Surface Antimicrobial Kill Testing Method provided above. After treatment, microbial growth is referenced and reported to a triclosan sample and unaltered microbes according to the Normalization of Antimicrobial Activity provided above.

The mark [3] stands for this setting: DEGBE (5 wt %), EcoSurf EH9 1 wt %.

In the case of `CCCCCCCCCCCCCCCCOC(=O)[C@@H](N)C(C)C` [Synthetic Example 6], in series [1], the “stability by 1H NMR” value was “stable for several months”. Also, the “Referenced Microbial Activity” value in series [2] (setting [3]) is on record as 0.6.
For the molecule `CCOC(=O)[C@@H](N)Cc1ccccc1` [Comparative Example C2, phenylalanine ethyl ester, reference compound], the “Negative Referenced Microbial Activity” value in series [2] (setting [3]) is recorded as 0.4. For the same molecule, the “antimicrobial benefit (in words)” value in series [2] is given as “little antimicrobial benefit”.
Take `CCOC(=O)C(N)C(C)C` (stereo not shown) [Comparative Example C1, reference compound]: the “Referenced Microbial Activity” value in series [2] (setting [3]) is given as 0.5.
Take `CCCCCCCCCCCCOC(=O)[C@@H](N)Cc1ccccc1` [Synthetic Example 10]: the “stability by 1H NMR” value in series [1] is on record as “stable for several months”. Also, the “Negative Referenced Microbial Activity” value in series [2] (setting [3]) turned out to be 0.1. Further, the “antimicrobial benefit (in words)” value in series [2] is “little surface activity”.
As to `CCCCCCCCCCCCCCCCCCOC(=O)[C@@H](N)C(C)C` [Synthetic Example 7], the “stability by 1H NMR” value in series [1] is “stable for several months”. Moreover, the “Referenced Microbial Activity” value in series [2] (setting [3]) came to 0.9; in series [2] (DMSO (50 wt %), EcoSurf EH6 1 wt %) it was 0.6.
Regarding `CCCCCCCCOC(=O)[C@@H](N)C(C)C` [Synthetic Example 4], the “stability by 1H NMR” value in series [1] is given as “stable for several months”. The “Gram Negative Referenced Microbial Activity” value in series [2] (CTAC 1 wt %, pH 4.5) is 3.5; in series [2] (Ecosurf EH6 1 wt %, pH 4.5) it was 3.5; in series [2] (Ecosurf EH6 1 wt %, pH 8.5), 0.7; in series [2] (Miranol Ultra 32 1 wt %, pH 4.5) it was 3.5; in series [2] (Plantaren 2000 1 wt %, pH 4.5) it was 3.5; in series [2] (SLS (29%) 1 wt %, pH 4.5), 0.4. The “Gram Negative Referenced Microbial Activity” value is listed as 0.1 in series [2] (SLS (29%) 1 wt %, pH 8.5); 2.5 in series [2] (Surfonic L 24-9 1 wt %, pH 2); 3.5 in series [2] (Surfonic L 24-9 1 wt %, pH 4.5); 3.5 in series [2] (Surfonic L24-9 1 wt %, pH 7); 0.2 in series [2] (Surfonic L24-9 1 wt %, pH 8.5); 3.5 in series [2] (Tween 80 1 wt %, pH 4.5). In addition, the “Gram Negative Referenced Microbial Activity” value in series [2] (no surfactant, pH 4.5, solution heated to 50 C. prior to testing) was 1.6. Besides, the “Referenced Microbial Activity” value in series [2] (DEGBE (5 wt %), EcoSurf EH6 1 wt %) was determined as 3.7; in series [2] (setting [3]) it was 1.6. In addition, in series [2] (Table 15 experiment, modified valine amino acids), the “antimicrobial activity (in words)” value is on record as “highest activity”. Also, the entries for the “antimicrobial efficacy (in words)” value in series [2] (from pH 2 to about pH 7) and in series [2] (pH range greater than 7) were “improved antimicrobial efficacy” and “did not provide a benefit”, respectively.
In the case of `CCCCCCOC(=O)[C@@H](N)C(C)C` [Synthetic Example 3], the “stability by 1H NMR” value in series [1] is on record as “stable for several months”. Also, the “Referenced Microbial Activity” value in series [2] (setting [3]) was 2.8.
For the molecule `N[C@@H](Cc1ccccc1)C(=O)OCc1ccccc1` [Synthetic Example 8], the “stability by 1H NMR” value in series [1] is “stable for several months”. In addition, the “Negative Referenced Microbial Activity” value in series [2] (setting [3]) is on record as 4.6.
